Here are results for six compounds from ChEMBL document CHEMBL1201862, “PubChem BioAssay data set” (2004).

The structures appear in SMILES notation. Calls of active or inactive are those of the source. For most assays here, no stated cut-off is given here; in the data, actives have a measured EC50 and inactives only a lower limit.

One experiment has as its target Genome polyprotein (dengue virus type 2, UniProt P29990). The experiment in a line: Dengue-2 NS5 methyltransferase inhibitors, primary screen, biochemical, confirmation dose response (AID 588689). The format is functional.
Another experiment deals with Vero. The experiment can be described thus: Vero cell cytotoxicity, cytotoxicity control for flavivirus capping enzyme inhibitors (AID 588742). The format is functional. The settings on record: Chlorocebus sabaeus.
A short description of experiment [1]: NIH-3T3 fibroblast cytotoxicity, dose response, cytotoxicity control, cell-based, fluorescence, Alamar Blue, secondary assay (AID 2327).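 Further: NIH-3T3 mouse fibroblasts cultured with fluconazole at 8 µg/mL.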 The format is functional. For orientation: The colour change of resazurin is a common sign of viable cells or microbes.
The nature of experiment [2]: C. albicans growth with fluconazole, confirmation, fluorescence, retest (AID 2467). The format is functional, cell-based.
Experiment [3] has as its target ATP-dependent molecular chaperone HSP82 (Candida albicans (strain WO-1) (Yeast), UniProt C4YTQ8). The experiment can be described thus: loss of DOC-induced GRE-beta-galactosidase reporter signal, dose response, Hsp90 inhibitor project, S. cerevisiae, luminescence (AID 2400).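 Further: beta-galactosidase luminescence from glucocorticoid response element reporter as proxy for Hsp90 function; inhibitor potency where signal loss means Hsp90 inhibition.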 The format is functional, cell-based.
For experiment [4], the target named is Serine/threonine-protein phosphatase (Candida dubliniensis (strain CD36 / CBS 7987 / NCPF 3949 / NRRLY-17841) (Yeast), UniProt B9W6M3). The experiment can be described thus: calcineurin pathway inhibitors in yeast reporter, dose response, S. cerevisiae, CDRE-lacZ, luminescence, secondary (AID 2388).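 Further: yeast reporter cells carrying a calcineurin-responsive lacZ construct stimulated with calcium chloride; luminescent beta-galactosidase reporter signal in whole cells rather than isolated phosphatase activity; potency for inhibition where a drop in reporter signal means calcineurin blockade.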 The format is functional, cell-based.
Chain of Serine/threonine-protein phosphatase (B9W6M3 whole entry): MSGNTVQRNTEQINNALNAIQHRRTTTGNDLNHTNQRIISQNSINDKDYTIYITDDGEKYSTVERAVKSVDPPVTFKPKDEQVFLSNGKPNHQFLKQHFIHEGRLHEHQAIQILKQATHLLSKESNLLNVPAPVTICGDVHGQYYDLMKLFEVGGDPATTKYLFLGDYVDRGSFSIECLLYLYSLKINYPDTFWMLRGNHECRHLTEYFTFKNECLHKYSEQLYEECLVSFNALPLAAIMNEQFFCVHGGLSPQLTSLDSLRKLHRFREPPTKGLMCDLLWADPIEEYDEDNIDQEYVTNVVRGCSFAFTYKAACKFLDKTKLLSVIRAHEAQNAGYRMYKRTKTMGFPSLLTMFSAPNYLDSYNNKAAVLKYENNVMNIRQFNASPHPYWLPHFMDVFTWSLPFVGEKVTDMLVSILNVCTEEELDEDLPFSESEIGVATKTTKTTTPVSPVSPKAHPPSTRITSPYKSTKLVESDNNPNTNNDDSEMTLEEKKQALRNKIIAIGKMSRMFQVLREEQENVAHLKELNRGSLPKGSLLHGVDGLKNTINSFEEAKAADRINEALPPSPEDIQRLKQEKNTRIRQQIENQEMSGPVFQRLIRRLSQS
Experiment [5] deals with Streptococcus sp. 'group A'. The experiment can be described thus: growth inhibition of control SK(-) GAS strain, dose response, counter-screen for streptokinase expression inhibitor project, luminescence, kanamycin, BacTiterGlo, confirmation (AID 1900). The format is functional, organism-based. A general note: Counterscreens check selectivity or assay interference.
Experiment [6] has as its target Heat shock protein HSP 90-alpha (Homo sapiens, UniProt P07900). The format is functional, organism-based.
A further experiment concerns Streptococcus. The experiment can be described thus: Group A Streptococcus viability loss, dose response, counter-screen for streptokinase expression inhibitor project, luminescence, BacTiterGlo (AID 1915).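 Further: potency for reduction of bacterial viability or growth.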 The format is functional, organism-based.
Experiment [7] concerns the target T1, Calpain-2 catalytic subunit (Sus scrofa, UniProt P43367).
T1 sequence (P43367 whole entry): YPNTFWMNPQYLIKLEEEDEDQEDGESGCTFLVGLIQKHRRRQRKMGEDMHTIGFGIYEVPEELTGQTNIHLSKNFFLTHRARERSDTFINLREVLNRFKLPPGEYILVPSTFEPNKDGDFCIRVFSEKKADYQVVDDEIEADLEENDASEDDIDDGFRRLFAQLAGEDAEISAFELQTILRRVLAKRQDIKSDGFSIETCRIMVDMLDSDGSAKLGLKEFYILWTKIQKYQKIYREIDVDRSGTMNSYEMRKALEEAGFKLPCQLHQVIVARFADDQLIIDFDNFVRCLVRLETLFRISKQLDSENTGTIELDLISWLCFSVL
The experiment can be described thus: pig calpain II inhibitor potency, dose response, biochemical, fluorogenic peptide substrate (AID 1420). The format is functional.

Experiment [8] is described as follows: Luminescence Cell-Based Dose Confirmation to Identify Activators of 5'UTR Stem-Loop Driven Alpha-Synuclein mRNA Translation in H4 Neuroglioblastoma Cells. [Related pubchem assays: 1829 (Project Summary), 1814 (Primary HTS)]. The format is functional.
The next experiment has as its system H4. The experiment in a line: Luminescence Cell-Based Dose Response HTS to Identify Activators of 5'UTR Stem-Loop Driven Prion Protein mRNA Translation in H4 Neuroglioblastoma Cells. [Related pubchem assays: 1829 (Project Summary), 1814 (Primary HTS)]. The format is functional. The conditions noted are these: Homo sapiens.
A short description of experiment [9]: Luminescence Cell-Based Dose Response to Identify Activators of 5'UTR Stem-Loop Driven Prion Protein mRNA Translation in H4-C Neuroglioblastoma Cells. [Related pubchem assays: 1829 (Project Summary), 1814 (Primary HTS)]. The format is functional.
Experiment [10] can be described thus: Luminescence Cell-Based Dose Response to Identify Activators of Luciferase Translation or Activity in H4-C Neuroglioblastoma Cells. [Related pubchem assays: 1829 (Project Summary), 1814 (Primary HTS)]. The format is functional.
A short description of experiment [11]: Luminescence Cell-Based Dose Response HTS to Identify Activators of Luciferase Translation or Activity in H4 […] Cells. [Related pubchem assays: 1829 (Project Summary), 1814 (Primary HTS)]. The format is functional.
Experiment [12] is described as follows: Luminescence Cell-Based Dose Confirmation HTS to Identify Activators of 5'UTR Stem-Loop Driven Alpha-Synuclein mRNA Translation in H4 Neuroglioblastoma Cells. [Related pubchem assays: 1829 (Project Summary), 1814 (Primary HTS)]. The format is functional.
The next experiment addresses T2, Hexokinase HKDC1 (Homo sapiens, UniProt Q2TB90).
T2 sequence (Q2TB90 whole entry): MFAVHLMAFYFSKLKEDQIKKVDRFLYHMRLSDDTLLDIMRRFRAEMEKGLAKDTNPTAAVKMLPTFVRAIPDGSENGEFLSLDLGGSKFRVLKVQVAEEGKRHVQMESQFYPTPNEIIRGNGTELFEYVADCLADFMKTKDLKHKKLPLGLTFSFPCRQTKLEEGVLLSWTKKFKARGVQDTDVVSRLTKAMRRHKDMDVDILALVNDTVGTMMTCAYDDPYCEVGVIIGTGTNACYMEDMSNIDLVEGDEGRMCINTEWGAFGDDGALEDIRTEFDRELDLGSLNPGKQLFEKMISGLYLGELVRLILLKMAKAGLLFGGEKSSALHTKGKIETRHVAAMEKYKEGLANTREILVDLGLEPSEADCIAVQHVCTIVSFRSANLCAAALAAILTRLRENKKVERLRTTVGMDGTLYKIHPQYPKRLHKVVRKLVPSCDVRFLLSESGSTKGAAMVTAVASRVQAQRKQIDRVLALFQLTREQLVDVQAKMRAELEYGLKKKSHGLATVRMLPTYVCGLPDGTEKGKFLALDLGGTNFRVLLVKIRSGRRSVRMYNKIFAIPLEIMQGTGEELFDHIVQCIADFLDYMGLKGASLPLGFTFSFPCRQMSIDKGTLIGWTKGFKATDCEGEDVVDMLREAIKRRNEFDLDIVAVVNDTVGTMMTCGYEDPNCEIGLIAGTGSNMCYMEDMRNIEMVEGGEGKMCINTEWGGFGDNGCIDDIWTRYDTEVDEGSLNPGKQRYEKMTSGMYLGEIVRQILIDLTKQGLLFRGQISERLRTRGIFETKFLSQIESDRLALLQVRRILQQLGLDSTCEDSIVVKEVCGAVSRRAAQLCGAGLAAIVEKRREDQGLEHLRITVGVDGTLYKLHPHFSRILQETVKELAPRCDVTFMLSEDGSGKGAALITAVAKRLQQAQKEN
The experiment can be described thus: SAR analysis of small molecule inhibitors of hexokinase domain containing I (HKDC1). [Related pubchem assays (depositor defined):AID493160, AID493190]. The format is functional.

The next experiment addresses Hexokinase-1 (Homo sapiens, UniProt P19367). The experiment can be described thus: SAR analysis of small molecule inhibitors of hexokinase domain containing I (HKDC1) in the hexokinase 1 selectivity assay. [Related pubchem assays (depositor defined):AID493160, AID493190]. The format is functional.

Chain of ATP-dependent molecular chaperone HSP82 (C4YTQ8 whole entry): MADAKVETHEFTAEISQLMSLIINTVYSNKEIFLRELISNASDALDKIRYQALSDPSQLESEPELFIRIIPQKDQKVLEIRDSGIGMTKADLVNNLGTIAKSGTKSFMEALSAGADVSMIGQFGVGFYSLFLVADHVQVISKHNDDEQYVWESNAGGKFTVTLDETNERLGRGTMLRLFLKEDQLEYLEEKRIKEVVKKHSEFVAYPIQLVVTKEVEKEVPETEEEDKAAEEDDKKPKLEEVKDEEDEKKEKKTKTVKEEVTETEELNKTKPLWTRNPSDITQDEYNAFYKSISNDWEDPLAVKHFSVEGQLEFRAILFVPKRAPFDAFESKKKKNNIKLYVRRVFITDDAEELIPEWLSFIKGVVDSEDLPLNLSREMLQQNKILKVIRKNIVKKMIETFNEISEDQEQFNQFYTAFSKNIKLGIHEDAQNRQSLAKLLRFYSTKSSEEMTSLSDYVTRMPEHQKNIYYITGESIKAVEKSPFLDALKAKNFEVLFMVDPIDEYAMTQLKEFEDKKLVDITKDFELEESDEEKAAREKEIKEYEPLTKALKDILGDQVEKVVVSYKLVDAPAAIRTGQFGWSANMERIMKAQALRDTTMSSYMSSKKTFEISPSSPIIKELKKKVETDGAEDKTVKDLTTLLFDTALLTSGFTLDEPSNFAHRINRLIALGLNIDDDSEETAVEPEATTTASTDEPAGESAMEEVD
Chain of Hexokinase-1 (P19367 whole entry, the tested form may be a part): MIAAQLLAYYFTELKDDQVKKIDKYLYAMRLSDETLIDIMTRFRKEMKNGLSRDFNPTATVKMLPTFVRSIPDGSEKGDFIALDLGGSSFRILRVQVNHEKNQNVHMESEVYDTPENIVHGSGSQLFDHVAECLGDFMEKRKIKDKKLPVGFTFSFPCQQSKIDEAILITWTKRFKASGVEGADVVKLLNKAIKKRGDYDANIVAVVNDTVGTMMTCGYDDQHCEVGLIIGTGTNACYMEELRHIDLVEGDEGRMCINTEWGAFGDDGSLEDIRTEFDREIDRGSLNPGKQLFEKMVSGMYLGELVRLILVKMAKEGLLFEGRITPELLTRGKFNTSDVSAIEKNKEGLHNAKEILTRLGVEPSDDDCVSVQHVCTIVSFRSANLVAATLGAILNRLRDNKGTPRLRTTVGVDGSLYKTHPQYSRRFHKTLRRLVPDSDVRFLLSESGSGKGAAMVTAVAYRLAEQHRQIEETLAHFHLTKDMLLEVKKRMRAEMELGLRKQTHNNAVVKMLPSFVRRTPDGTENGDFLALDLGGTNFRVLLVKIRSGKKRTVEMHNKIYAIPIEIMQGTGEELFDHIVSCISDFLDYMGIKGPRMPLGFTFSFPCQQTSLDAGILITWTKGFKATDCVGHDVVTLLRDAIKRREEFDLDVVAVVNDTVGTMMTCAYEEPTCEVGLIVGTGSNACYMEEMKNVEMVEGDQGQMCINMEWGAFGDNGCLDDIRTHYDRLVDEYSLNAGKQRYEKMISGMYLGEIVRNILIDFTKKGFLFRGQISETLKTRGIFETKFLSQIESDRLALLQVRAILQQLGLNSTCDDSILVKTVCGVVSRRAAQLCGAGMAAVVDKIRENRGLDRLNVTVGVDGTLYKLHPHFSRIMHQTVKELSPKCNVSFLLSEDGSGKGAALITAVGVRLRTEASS
Chain of Genome polyprotein (P29990 2492-3391 limits assumed): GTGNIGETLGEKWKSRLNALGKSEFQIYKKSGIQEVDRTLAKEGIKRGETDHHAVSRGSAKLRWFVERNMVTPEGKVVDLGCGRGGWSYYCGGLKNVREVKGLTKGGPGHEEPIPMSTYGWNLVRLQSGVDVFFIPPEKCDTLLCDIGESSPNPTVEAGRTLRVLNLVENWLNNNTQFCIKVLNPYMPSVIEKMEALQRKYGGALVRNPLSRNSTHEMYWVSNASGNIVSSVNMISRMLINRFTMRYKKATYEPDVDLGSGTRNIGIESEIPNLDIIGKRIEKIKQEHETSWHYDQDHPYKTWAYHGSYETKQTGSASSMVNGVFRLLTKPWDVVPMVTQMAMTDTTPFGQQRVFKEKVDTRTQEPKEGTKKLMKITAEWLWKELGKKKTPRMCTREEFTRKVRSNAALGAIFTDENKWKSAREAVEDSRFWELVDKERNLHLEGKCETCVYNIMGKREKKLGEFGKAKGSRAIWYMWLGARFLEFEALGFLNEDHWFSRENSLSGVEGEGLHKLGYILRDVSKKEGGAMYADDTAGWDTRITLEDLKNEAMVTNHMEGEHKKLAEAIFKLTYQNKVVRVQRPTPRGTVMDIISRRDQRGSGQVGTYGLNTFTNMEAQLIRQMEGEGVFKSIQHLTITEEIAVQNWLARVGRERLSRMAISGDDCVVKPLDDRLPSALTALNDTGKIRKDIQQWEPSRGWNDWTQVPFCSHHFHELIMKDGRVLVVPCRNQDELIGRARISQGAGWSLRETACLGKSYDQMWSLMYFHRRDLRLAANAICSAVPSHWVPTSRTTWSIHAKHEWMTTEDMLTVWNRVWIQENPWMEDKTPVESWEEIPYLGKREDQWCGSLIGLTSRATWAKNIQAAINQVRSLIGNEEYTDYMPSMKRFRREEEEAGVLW

Take `CSc1ccc(-c2sc(Nc3cccc4ccccc34)n[n+]2-c2ccccc2)cc1`: on Genome polyprotein, the IC50 (commonly the point on the concentration scale where inhibition reaches its midpoint) is 44.5 µM (active). For the same compound, the CC50 (as a rule, the concentration giving 50% cytotoxicity) with Vero is > 40 µM (active).

Take `Clc1ccc2c(c1)C(c1cccs1)=NNC(c1cccnc1)=N2`: the EC50 (commonly the midpoint of the concentration-response curve) in experiment [1] is > 150 µM (inactive); in experiment [2], 0.101 µM (active); in experiment [3], > 150 µM (inactive); in experiment [4] it was > 180 µM (inactive).

Consider `O=[N+]([O-])c1cc(Cl)c(O)c2ncccc12`, for which the EC50 in [1] is 15.5 µM (active); in [5], 1.33 µM (active); in the experiment on Streptococcus, 5.77 µM (active); in experiment [2], 0.055 µM (active); in experiment [3], 1.48 µM (active); in experiment [4], > 180 µM (inactive). Besides, the AC50 – broadly, the concentration giving half of the maximal activity seen – in experiment [6] was 1.86 µM (active). Moreover, the IC50 in experiment [7] is > 50 µM (not active).

In the case of `Cc1ccc(-c2nn(-c3ccccc3)cc2C=C2C(=O)CC(C)(C)CC2=O)cc1`, the EC50 in experiment [8] was 0.555 µM (active); in the experiment with H4, > 120 µM (not active); in experiment [9], > 12 µM (not active); in experiment [10] it was 1.35 µM (active); in experiment [11], 0.454 µM (active); in experiment [12] it was > 120 µM (not active). The IC50 at Genome polyprotein is 44.8 µM (active). For the same compound, the CC50 with Vero was 19.1 µM (active).

Turning to `O=C(Nc1nnc(SCc2ccccc2)s1)c1ccc2[nH]cnc2c1`, the IC50 on Hexokinase HKDC1 and at Hexokinase-1 was > 80 µM (inactive) in each case.

Take `Cc1cc2nnc(SCC(=O)Nc3ccccc3)n2c2ccccc12`: the IC50 at Hexokinase HKDC1 and on Hexokinase-1 was > 80 µM (inactive) throughout.
